Assay results published in article PMC9926489, “Chemical Optimization of Selective Pseudomonas aeruginosa LasB Elastase Inhibitors and Their Impact on LasB-Mediated Activation of IL-1β in Cellular and Animal Infection Models” (ACS Infectious Diseases, 2023).

How the values were obtained:
[1] = biological target: T1, LasB (P. aeruginosa PAO1 culture supernatant) (Pseudomonas aeruginosa, UniProt P14756); test: Elastin Congo Red (ECR) assay, elastin hydrolysis by dialyzed PAO1 culture supernatant; format: biochemical; conditions: 25 μM inhibitor
T1 construct: The mature LasB protein is a 33 kDa metalloprotease, which is secreted from P. aeruginosa; endogenous in cells; host or cells: P. aeruginosa PAO1 culture supernatant, filtered and dialyzed
Text: This was chosen as the starting point for a medicinal chemistry-driven lead optimization program aiming to improve potency and solubility whilst retaining selectivity against host metalloenzymes. All synthesized compounds were initially assessed in a fluorimetric assay measuring hydrolysis of a fluorogenic substrate Abz-Ala-Gly-Leu-Ala-4-nitrobenzylamide (Abz-AGLA-Nba) by purified LasB and IC50 values determined (Tables 1 and 2). Inhibition of elastin hydrolytic activity was confirmed using an orthogonal assay measuring hydrolysis of Elastin Congo Red (ECR) complex by LasB prepared directly from a P. aeruginosa culture supernatant (Tables 1 and 2). […] Aqueous solubility was determined for most compounds (Tables 1 and 2).
Inhibition of elastin hydrolysis by native LasB, secreted in P. aeruginosa culture supernatants, was measured using the Elastin Congo Red (ECR) assay. Culture supernatants from P. aeruginosa strain PAO1, grown in LB medium at 37 °C for 24 h, were filtered and dialyzed against 50 mM Tris-HCl pH 7.4, 2.5 mM CaCl2 solution at 4 °C and supplemented with 0.01%Triton X-100, 10 mg/mL ECR (Sigma) and 25 μM inhibitor compounds. The reaction mixture was incubated for 16 h at 37 °C with shaking before centrifugation and recovery of the supernatant and measurement of solubilized congo red by absorbance (OD495) using an EnSight multimode plate reader (PerkinElmer).

purified LasB = biological target: T2, purified LasB (Pseudomonas aeruginosa, UniProt P14756); test: Inhibition of LasB-mediated proteolysis of human serum IgG (SDS-PAGE); format: biochemical, P. aeruginosa; conditions: for inhibition of generation of 37 kDa IgG degradation product by LasB: at 10 μM inhibitor
T2 construct: The mature LasB protein is a 33 kDa metalloprotease, which is secreted from P. aeruginosa; host or cells: P. aeruginosa PAO1 (native secretion, culture supernatant)
Description: To confirm if compounds 12 and 16 were able to inhibit this activity, human serum IgG was incubated with purified LasB in the presence of varying concentrations of inhibitors and the products analyzed by SDS-PAGE.
This protocol was adapted from Cathcart et al.[25] Briefly, 10 μg of IgG from human serum (Sigma) were incubated with 100 ng purified LasB in assay buffer (50 mM Tris-HCl pH 7.4, 2.5 mM CaCl2) for 4 h at 37 °C, with or without variable concentrations of inhibitor. Samples were then denatured and analyzed by 4–15% gradient SDS polyacrylamide gel electrophoresis (SDS-PAGE) and the gel stained using Coomassie blue. The IgG subunits are visualized as two bands at 28 kDa (light chain) and 54 kDa (heavy chain). Proteolysis by LasB results in the generation of a fragment of the heavy chain detected of approximately 37 kDa. Bands were quantified using ImageJ software, and IC50 values were determined using Prism software (GraphPad).

[2] = biological target: T3, LasB Q102R, S241G, D244N, K282N, R471S (Pseudomonas aeruginosa, UniProt P14756, D244N/K282N/R471S/S241G); test: LasB variant inhibition, culture supernatant: five substitutions; format: biochemical, P. aeruginosa
T3 construct: Most changes were identified in the mature peptide, however some occurred in the propeptide domain; endogenous in cells; host or cells: P. aeruginosa clinical CF isolate, culture supernatant
Text: Compounds 12 and 16 were discovered as a result of optimizing potency against the LasB protein expressed from the wild-type (WT) reference strain P. aeruginosa PAO1. To understand the relative prevalence of the WT LasB protein versus other variants in clinical respiratory P. aeruginosa strains, the full-length lasB gene was amplified by PCR from 255 clinical isolates (obtained from CF sputum samples). […] Most changes were identified in the mature peptide, however some occurred in the propeptide domain, which could affect LasB processing (marked in italics in Table 4).
LasB inhibition assays were performed using purified LasB enzyme (1 ng/well) for compound screening or using culture supernatants (prepared as described in the ECR assay) for testing LasB variants. Hydrolysis of the fluorogenic peptide substrate 2-aminobenzoyl-Ala-Gly-Leu-Ala-4-nitrobenzylamide (Abz-AGLA-Nba; Peptide International) in 50 mM Tris-HCl (pH 7.4), supplemented with 2.5 mM CaCl2 was followed using an Envision microplate reader (PerkinElmer) at 315 nm excitation and 430 nm emission. […] IC50 values were determined from Hill plots using Dotmatics Studies ELN software. For the mechanism of inhibition studies, hydrolysis rates were measured in the presence of variable concentrations of substrate and inhibitor, and the inhibition constant (Ki) was determined using Dixon plot analysis.[31]

[3] = Mouse pharmacokinetics, plasma; format: in vivo; conditions: single 10 mg/kg IV dose; for half-life / C0 / AUC(0-t) / clearance: female, ICR (CD-1), plasma; for half-life: iv, read-out: plasma t1/2 (converted); for half-life / plasma t1/2: 10 mg/kg; for AUC(0-t): read-out: plasma AUClast; for clearance: read-out: plasma CL
Description: The PK parameters of compounds 12 and 16 were investigated in both plasma and lung epithelial lining fluid (ELF) after intravenous (IV) administration of compounds at 10 mg/kg in mice (Figure 4 and Table 5). […] Accordingly, these levels of lung penetration (9.5 and 5.2%, respectively) warranted the evaluation of the compounds in an animal model of lung infection using IV dosing.
Unrestrained, nonanesthetized mice (Female ICR (CD-1); Age 5–6 weeks; Size 22 ± 2 g; specific pathogen-free (SPF)) were injected IV with test article formulations via the tail vein. Animals were sacrificed by cardiac puncture under CO2 euthanasia at 0.08, 0.25, 1, 2, 4, 8, and 24 h post dosing. Blood was drawn into tubes coated with EDTA-K3, mixed gently and plasma was then harvested and kept frozen at −70 °C until further processing. To collect […] (BALF), 0.5 mL of PBS was administered once through a tracheal cannula after which about 0.2 to 0.3 mL of BALF was obtained. The BALF was kept on ice and centrifuged within 1 h of collection and the supernatant was harvested and kept frozen at −70 °C. Plasma and BALF samples were analyzed by LC-MS/MS (AB SCIEX API 3000 mass spectrometer). The apparent ELF volume of each BALF sample was estimated using urea as an endogenous marker of the ELF dilution. The urea concentrations in BALF and plasma samples were determined with the QuantiChrom Urea Assay Kit (DIUR-100) (BioAssay Systems) following the manufacturer’s protocol. For each BALF sample, the drug concentration in ELF was calculated as follows: drug concentrationELF = drug concentrationBALF × (urea concentrationplasma/urea concentrationBALF). The PK parameters of each compound after IV dosing (t1/2, C0, AUClast, and CL) were obtained from the noncompartmental analysis (NCA) of the plasma data using WinNonlin.

T2 sequence (P14756 198-498): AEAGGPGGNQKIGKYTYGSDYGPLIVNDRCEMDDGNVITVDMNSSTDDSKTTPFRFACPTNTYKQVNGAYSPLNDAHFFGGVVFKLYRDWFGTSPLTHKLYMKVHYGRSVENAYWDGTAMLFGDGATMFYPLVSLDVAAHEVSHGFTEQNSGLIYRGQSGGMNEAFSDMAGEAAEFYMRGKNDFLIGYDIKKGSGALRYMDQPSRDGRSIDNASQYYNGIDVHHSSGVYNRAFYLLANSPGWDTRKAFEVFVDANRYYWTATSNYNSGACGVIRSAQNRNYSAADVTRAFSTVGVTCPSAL
T1 sequence (P14756 198-498): as above
T3 sequence (P14756 198-498, looked up, stated change not applied): as the sequence (P14756 198-498) above

SMILES | Elastin hydrolysis @ 25 μM (% inh) [1] [% inh] | IC50 (purified LasB) [nM] | inhibition of generation of 37 kDa IgG degradation product by LasB (purified LasB) | IC50 [2] [nM] | half-life [3] [h] | C0 [3] [µg/mL] | AUC(0-t) [3] [µg·h/mL] | clearance [3] [mL/min/kg] | plasma t1/2 [3] [h]
COc1cc2sc(CNC(=O)C3(CC(=O)O)Cc4cc(F)c(F)cc4C3)nc2cc1OCCC[N+](C)(CCO)CCO [Compound 16] | 73 | 1290 | complete inhibition | 178 | ~6 | 176 | 517 | 0.3 | 6.5
COc1cc2sc(CNC(=O)C3(CC(=O)O)Cc4ccccc4C3)nc2cc1OCCC[N+](C)(C)C [Compound 12] | 64 | 2590 | complete inhibition | 183 | ~6 | 92.2 | 610 | 0.3 | 6.2
